According to PubChem BioAssay AID256 (DTP/NCI, 2004):
Where “and” joins values, the source holds several entries; their conditions need not be identical. Equal values may be shown once. Inconclusive results and toxic doses are left out.

Test system: CD2F1 mice, L1210 leukemia ip, survival T/C
Assay: NCI In Vivo Anticancer Drug Screen. Data for tumor model L1210 Leukemia (intraperitoneal) in CD2F1 (CDF1) mice
Details: endpoint: mean survival time, higher = longer survival
Outline: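 Mice carrying a transplanted tumor received test compound or vehicle alone. The value is the measurement in the treated group divided by that in the vehicle-treated control group.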

[1] = dose: 50.0 mg/kg/injection, schedule: Q01DX009 (ip), vehicle: saline
[2] = dose: 100.0 mg/kg/injection, schedule: Q04DX002 (ip), vehicle: saline with Tween-80
[3] = dose: 200.0 mg/kg/injection, schedule: Q04DX002 (ip), vehicle: saline with Tween-80
[4] = dose: 100.0 mg/kg/injection, schedule: Q04DX003 (ip), vehicle: saline with Tween-80
[5] = dose: 200.0 mg/kg/injection, schedule: Q01DX001 (ip), vehicle: saline
[6] = dose: 200.0 mg/kg/injection, schedule: Q04DX003 (ip), vehicle: saline with Tween-80
[7] = dose: 400.0 mg/kg/injection, schedule: Q04DX003 (ip), vehicle: saline with Tween-80
[8] = dose: 25.0 mg/kg/injection, schedule: Q01DX001 (ip), vehicle: saline with Tween-80
[9] = dose: 50.0 mg/kg/injection, schedule: Q01DX001 (ip), vehicle: saline with Tween-80
[10] = dose: 100.0 mg/kg/injection, schedule: Q01DX009 (ip), vehicle: saline with Tween-80
[11] = dose: 200.0 mg/kg/injection, schedule: Q01DX009 (ip), vehicle: saline with Tween-80
[12] = dose: 400.0 mg/kg/injection, schedule: Q01DX009 (ip), vehicle: saline with Tween-80
[13] = dose: 25.0 mg/kg/injection, schedule: Q01DX009 (ip), vehicle: saline with Tween-80
[14] = dose: 50.0 mg/kg/injection, schedule: Q01DX009 (ip), vehicle: saline with Tween-80

Q: How did the T/C (dose: 100.0 mg/kg/injection, schedule: Q01DX001 (ip), vehicle: Klucel (hydroxypropylcellulose) (HPC)) turn out when `COc1ccc(NS(=O)(=O)c2ccc(NC(C)=O)cc2)cc1` was run?
A: 104 % of control

Q: And the T/C (dose: 100.0 mg/kg/injection, schedule: Q01DX009 (ip), vehicle: Klucel (hydroxypropylcellulose) (HPC))?
A: 97 % of control

Q: What about the T/C (dose: 200.0 mg/kg/injection, schedule: Q01DX001 (ip), vehicle: Klucel (hydroxypropylcellulose) (HPC)) of the same molecule?
A: 96 % of control

Q: What about the T/C (dose: 200.0 mg/kg/injection, schedule: Q01DX009 (ip), vehicle: Klucel (hydroxypropylcellulose) (HPC)) of the same molecule?
A: 105 % of control

Q: What about the T/C (dose: 400.0 mg/kg/injection, schedule: Q01DX001 (ip), vehicle: Klucel (hydroxypropylcellulose) (HPC)) of the same molecule?
A: 98 % of control

Q: And the T/C (dose: 400.0 mg/kg/injection, schedule: Q01DX009 (ip), vehicle: Klucel (hydroxypropylcellulose) (HPC))?
A: 96 % of control

Q: What does the source list for `CCN(CC)CC[n+]1ccc2c(C)c3[nH]c4ccc(O)cc4c3c(C)c2c1`?
A: T/C (dose: 3.12 mg/kg/injection, schedule: Q01DX009 (ip), vehicle: suspension in saline): 179 % of control; T/C (dose: 6.25 mg/kg/injection, schedule: Q01DX009 (ip), vehicle: suspension in saline): 228 % of control; T/C (dose: 12.5 mg/kg/injection, schedule: Q01DX009 (ip), vehicle: suspension in saline): 170 % of control and 262 % of control; T/C (dose: 25.0 mg/kg/injection, schedule: Q01DX009 (ip), vehicle: suspension in saline): 116 % of control and 111 % of control; T/C [1]: 102 % of control; T/C (dose: 50.0 mg/kg/injection, schedule: Q01DX009 (ip), vehicle: suspension in saline): 92 % of control

Q: Which T/C (dose: 3.13 mg/kg/injection, schedule: Q01DX005 (ip), vehicle: water) does the source give for `C=C1C(=O)OC2CC(C)C3CC(O)OC(O)C3(C)CC12` (stereo not drawn) here?
A: 88 % of control

Q: And the T/C (dose: 6.25 mg/kg/injection, schedule: Q01DX005 (ip), vehicle: water)?
A: 94 % of control

Q: What about the T/C (dose: 12.5 mg/kg/injection, schedule: Q01DX005 (ip), vehicle: water) of the same molecule?
A: 102 % of control

Q: `CCC1NC(=O)C(NC(=O)c2ncccc2O)C(C)OC(=O)C(c2ccccc2)NC(=O)C2CC(=O)CCN2C(=O)C(Cc2ccccc2)N(C)C(=O)C2CCCN2C1=O` (stereo not drawn) was tested. Which T/C [2] did it give?
A: 108 % of control

Q: What about the T/C [3] of the same molecule?
A: 108 % of control

Q: With `O=C(Cn1cc[n+](CC(=O)c2ccccc2)c1)c1ccccc1` as the molecule, how does the T/C [4] read?
A: 109 % of control

Q: What does the source list for `CCCCCCCCCCCCCCCCC(C)(O)C#CC(C)(O)CCCCCCCCCCCCCCCC` (stereo not drawn)?
A: T/C (dose: 100.0 mg/kg/injection, schedule: Q01DX005 (ip), vehicle: other): 97 % of control; T/C (dose: 200.0 mg/kg/injection, schedule: Q01DX005 (ip), vehicle: other): 97 % of control; T/C (dose: 400.0 mg/kg/injection, schedule: Q01DX005 (ip), vehicle: other): 101 % of control

Q: With `Cc1cc(S(=O)(=O)c2ccc(O)c(C)c2)ccc1O` as the molecule, how does the T/C [2] read?
A: 103 % of control

Q: And the T/C [3]?
A: 100 % of control

Q: And the T/C (dose: 400.0 mg/kg/injection, schedule: Q04DX002 (ip), vehicle: saline with Tween-80)?
A: 97 % of control

Q: What does the source list for `NC1C(O)C(N)C(O)C(O)C1O` (stereo not drawn)?
A: T/C (dose: 100.0 mg/kg/injection, schedule: Q01DX009 (ip), vehicle: saline sonified): 90 % of control; T/C (dose: 200.0 mg/kg/injection, schedule: Q01DX009 (ip), vehicle: saline sonified): 95 % of control; T/C (dose: 400.0 mg/kg/injection, schedule: Q01DX009 (ip), vehicle: saline sonified): 95 % of control

Q: With `O=C(Nc1ccc(S(=O)(=O)F)cc1)c1ccc([N+](=O)[O-])cc1` as the molecule, how does the T/C (dose: 100.0 mg/kg/injection, schedule: Q01DX001 (ip), vehicle: saline) read?
A: 105 % of control

Q: And the T/C [5]?
A: 100 % of control

Q: And the T/C (dose: 400.0 mg/kg/injection, schedule: Q01DX001 (ip), vehicle: saline)?
A: 100 % of control

Q: Which results are given for `O=C(CCl)N1c2ccccc2Sc2ccccc21`?
A: T/C (dose: 25.0 mg/kg/injection, schedule: Q01DX009 (ip), vehicle: water): 93 % of control; T/C (dose: 50.0 mg/kg/injection, schedule: Q01DX009 (ip), vehicle: water): 91 % of control; T/C (dose: 100.0 mg/kg/injection, schedule: Q01DX009 (ip), vehicle: water): 95 % of control; T/C (dose: 200.0 mg/kg/injection, schedule: Q01DX009 (ip), vehicle: water): 95 % of control

Q: Which results are given for `Cc1c2ccccc2c(CN2CC(O)CC2C(=O)O)c2ccccc12` (stereo not drawn)?
A: T/C [4]: 94 % of control; T/C [6]: 93 % of control; T/C [7]: 87 % of control

Q: Which results are given for `CC(=O)N1CCCCC1`?
A: T/C (dose: 25.0 mg/kg/injection, schedule: Q01DX009 (ip), vehicle: saline): 102 % of control; T/C [1]: 96 % of control; T/C (dose: 100.0 mg/kg/injection, schedule: Q01DX009 (ip), vehicle: saline): 102 % of control

Q: Which results are given for `COC(=O)c1ccccc1C(=O)c1n[nH]c2ccccc12`?
A: T/C (dose: 25.0 mg/kg/injection, schedule: Q04DX002 (ip), vehicle: saline with Tween-80): 103 % of control; T/C (dose: 50.0 mg/kg/injection, schedule: Q04DX002 (ip), vehicle: saline with Tween-80): 106 % of control; T/C [2]: 106 % of control; T/C [3]: 106 % of control

Q: Which results are given for `CN(C)/C=C1\Cc2ccccc2C1=O`?
A: T/C [8]: 95 % of control; T/C [9]: 92 % of control; T/C (dose: 100.0 mg/kg/injection, schedule: Q01DX001 (ip), vehicle: saline with Tween-80): 90 % of control

Q: Which results are given for `c1ccc(-c2cc(-c3ccccc3)on2)cc1`?
A: T/C [10]: 96 % of control; T/C [4]: 93 % of control; T/C [11]: 94 % of control; T/C [6]: 94 % of control; T/C [12]: 97 % of control; T/C [7]: 98 % of control

Q: Which T/C (dose: 15.0 mg/kg/injection, schedule: Q04DX003 (ip), vehicle: saline) does the source give for `O=C(COc1cc(Cl)c(Cl)cc1Cl)OCCOc1cc(Cl)c(Cl)cc1Cl` here?
A: 93 % of control

Q: What about the T/C (dose: 30.0 mg/kg/injection, schedule: Q04DX003 (ip), vehicle: saline) of the same molecule?
A: 89 % of control

Q: And the T/C [5]?
A: 86 % of control

Q: `c1cc(N2CCCC2)cc(N2CCCC2)c1` was tested. Which T/C [10] did it give?
A: 96 % of control

Q: And the T/C [4]?
A: 102 % of control

Q: And the T/C [11]?
A: 88 % of control

Q: What about the T/C [6] of the same molecule?
A: 106 % of control

Q: And the T/C [12]?
A: 88 % of control

Q: And the T/C [7]?
A: 98 % of control

Q: With `CCOC(=O)/C=C/CP(=O)(OCC)OCC` as the molecule, how does the T/C (dose: 50.0 mg/kg/injection, schedule: Q01DX001 (ip), vehicle: carboxymethylcellulose (CMC)) read?
A: 102 % of control

Q: How did the T/C [8] turn out when `NNc1ncn[nH]1` was run?
A: 98 % of control

Q: What about the T/C [9] of the same molecule?
A: 101 % of control

Q: Which results are given for `Nc1nc(-c2cccc3ccccc23)cc2ccccc12`?
A: T/C (dose: 12.5 mg/kg/injection, schedule: Q01DX009 (ip), vehicle: saline with Tween-80): 89 % of control and 98 % of control; T/C [13]: 101 % of control and 102 % of control; T/C [14]: 104 % of control and 105 % of control; T/C [10]: 112 % of control and 97 % of control; T/C [11]: 118 % of control and 106 % of control

Q: Which T/C (dose: 2.5 mg/kg/injection, schedule: Q01DX009 (ip), vehicle: sodium bicarbonate) does the source give for `CN(Cc1cnc2nc(N)nc(N)c2n1)c1ccc(C(=O)NC(CCC(=O)NC(CCC(=O)O)C(=O)O)C(=O)O)cc1` (stereo not drawn) here?
A: 165 % of control

Q: And the T/C (dose: 5.0 mg/kg/injection, schedule: Q01DX009 (ip), vehicle: sodium bicarbonate)?
A: 119 % of control

Q: And the T/C (dose: 10.0 mg/kg/injection, schedule: Q01DX009 (ip), vehicle: sodium bicarbonate)?
A: 89 % of control

Q: What does the source list for `CCc1c(CNc2ccc(C(=O)NC(CC(=O)O)C(=O)O)cc2)ccc2nc(N)nc(N)c12` (stereo not drawn)?
A: T/C (dose: 0.25 mg/kg/injection, schedule: Q01DX001 (ip), vehicle: saline): 105 % of control; T/C (dose: 0.5 mg/kg/injection, schedule: Q01DX001 (ip), vehicle: saline): 114 % of control; T/C (dose: 1.0 mg/kg/injection, schedule: Q01DX001 (ip), vehicle: saline): 119 % of control; T/C (dose: 4.0 mg/kg/injection, schedule: Q01DX001 (ip), vehicle: saline): 163 % of control

Q: For `O=S(=O)(Nc1ccc2c3c(cccc13)C=C2)c1ccccc1`, which T/C [4] is on record?
A: 98 % of control

Q: And the T/C [6]?
A: 98 % of control

Q: What about the T/C [7] of the same molecule?
A: 98 % of control

Q: With `O/N=C(/Cl)c1ccccn1` as the molecule, how does the T/C (dose: 1.88 mg/kg/injection, schedule: Q04DX003 (ip), vehicle: saline) read?
A: 102 % of control

Q: And the T/C (dose: 3.75 mg/kg/injection, schedule: Q04DX003 (ip), vehicle: saline)?
A: 94 % of control

Q: And the T/C (dose: 7.5 mg/kg/injection, schedule: Q01DX001 (ip), vehicle: saline)?
A: 101 % of control

Q: What about the T/C (dose: 7.5 mg/kg/injection, schedule: Q04DX003 (ip), vehicle: saline) of the same molecule?
A: 94 % of control

Q: Which T/C (dose: 12.5 mg/kg/injection, schedule: Q04DX002 (ip), vehicle: saline) does the source give for `CN(C)CC(C)(C)C(=O)c1ccc(F)cc1` here?
A: 104 % of control

Q: What about the T/C (dose: 25.0 mg/kg/injection, schedule: Q04DX002 (ip), vehicle: saline) of the same molecule?
A: 101 % of control

Q: What about the T/C (dose: 50.0 mg/kg/injection, schedule: Q04DX002 (ip), vehicle: saline) of the same molecule?
A: 96 % of control

Q: Which results are given for `CCOc1ccccc1NC(=O)NCC(=O)NNC(=O)Nc1ccc(Cl)c([N+](=O)[O-])c1`?
A: T/C [10]: 92 % of control; T/C [11]: 92 % of control; T/C [12]: 97 % of control

Q: `CCOC(=O)c1ccc(Nc2nnc(-c3ccc(OC)cc3OC)s2)cc1` was tested. Which T/C [13] did it give?
A: 94 % of control

Q: And the T/C [14]?
A: 88 % of control

Q: What about the T/C [10] of the same molecule?
A: 88 % of control and 91 % of control
